Reference: patent publication US10111874B2, “Combination therapies for treatment of cancer” (Araxes Pharma LLC, priority 2014, dated 2018)

Molecular target: T1, KRAS G12C 1-169, his-tagged protein, GDP-loaded (Homo sapiens, UniProt P01116, G12C)
T1 construct: KRAS G12C 1-169, his-tagged protein, GDP-loaded
Experiment: Biochemical assay: covalent binding to KRAS G12C analyzed by mass spectrometry; also: test concentration or dose not given here
Conditions: determined at 24 hrs

T1 sequence (P01116 1-169 isoform P01116-2 G12C): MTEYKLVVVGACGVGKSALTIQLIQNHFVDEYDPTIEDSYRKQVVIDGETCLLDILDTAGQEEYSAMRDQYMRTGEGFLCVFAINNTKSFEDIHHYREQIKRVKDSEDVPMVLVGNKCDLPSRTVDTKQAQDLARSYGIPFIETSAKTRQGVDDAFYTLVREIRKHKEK

| Structure (SMILES) | Binding % |
| --- | --- |
| C=CC(=O)NC1CN(C2CN(C(=O)CNc3cc(Br)c(Cl)cc3O)C2)C1 [II-36, N-(1′-(2-(5-bromo-4-chloro-2-hydroxyphenylamino)-acetyl)-1,3′-biazetidin-3-yl)acrylamide] | ++++ (++++indicates binding activity greater than 50%) |
| C=CC(=O)N1CC(N2CCN(C(=O)CNc3cc(C(F)(F)F)c(Cl)cc3OC)CC2)C1 [II-37, 1-(3-(4-(2-(4-chloro-2-methoxy-5-(trifluoromethyl)-phenylamino)acetyl)-piperazin-1-yl)azetidin-1-yl)prop-2-en-1-one] | ++ (++indicates binding activity greater than 15% and up to 25%) |
| C=CC(=O)N1CC(N2CCN(C(=O)CNc3ncc(Cl)s3)CC2)C1 [II-38, 1-(3-(4-(2-(5-chlorothiazol-2-ylamino)acetyl)piperazin-1-yl)azetidin-1-yl)prop-2-en-1-one] | + (+indicates binding activity from 5% to 15%) |
| C=CC(=O)N1CCN(C2CN(C(=O)CNc3cc(Cl)c(Cl)cc3O)C2)CC1 [II-39, 1-(4-(1-(2-(4,5-dichloro-2-hydroxyphenyl-amino)acetyl)azetidin-3-yl)piperazin-1-yl)prop-2-en-1-one] | +++ (+++indicates binding activity greater than 25% and up to 50%) |
| C=CS(=O)(=O)N1CCN(C2CN(C(=O)CNc3cc(Cl)c(Cl)cc3O)C2)CC1 [II-40, 2-(4,5-dichloro-2-hydroxyphenylamino)-1-(3-(4-(vinylsulfonyl)-piperazin-1-yl)azetidin-1-yl)ethanone] | ++++ (++++indicates binding activity greater than 50%) |
| C=CS(=O)(=O)N1CCC(N2CCN(C(=O)CNc3cc(Cl)c(Cl)cc3O)CC2)C1 (stereo not shown) [II-41, 2-(4,5-dichloro-2-hydroxyphenylamino)-1-(4-(1-(vinylsulfonyl)-pyrrolidin-3-yl)piperazin-1-yl)ethanone] | ++++ (++++indicates binding activity greater than 50%) |
| C=CC(=O)N1CC(N2CCN(C(=O)CN3CC(=O)Nc4ccccc43)CC2)C1 [II-42, 4-(2-(4-(1-acryloylazetidin-3-yl)piperazin-1-yl)-2-oxoethyl)-3,4-dihydroquinoxalin-2(1H)-one] | + (+indicates binding activity from 5% to 15%) |
| C=CC(=O)N1CC(N2CCN(C(=O)CNc3cc4ccccc4cc3O)CC2)C1 [II-43, 1-(3-(4-(2-(3-hydroxynaphthalen-2-ylamino)acetyl)-piperazin-1-yl)azetidin-1-yl)prop-2-en-1-one] | ++++ (++++indicates binding activity greater than 50%) |
| C=CC(=O)N1CC(N2CCN(C(=O)CNc3cc(Cl)c(Cl)c(C(N)=O)c3)CC2)C1 [II-44, 5-(2-(4-(1-acryloylazetidin-3-yl)piperazin-1-yl)-2-oxoethylamino)-2,3-dichlorobenzamide] | + (+indicates binding activity from 5% to 15%) |
| C=CC(=O)NC1CN(C2CN(C(=O)CNc3cc(C4CC4)c(Cl)cc3O)C2)C1 [II-45, N-(1′-(2-(4-chloro-5-cyclopropyl-2-hydroxyphenyl-amino)acetyl)-1,3′-biazetidin-3-yl)acrylamide] | ++++ (++++indicates binding activity greater than 50%) |
| C=CC(=O)N1CC(N2CCN(C(=O)CNc3cc(C=O)c(Cl)cc3OC)CC2)C1 [II-46, 5-(2-(4-(1-acryloylazetidin-3-yl)piperazin-1-yl)-2-oxoethylamino)-2-chloro-4-methoxybenzaldehyde] | + (+indicates binding activity from 5% to 15%) |
| C=CC(=O)N1CC(N2CCN(C(=O)c3cc(C4CC4)c(Cl)cc3OC)CC2)C1 [II-47, 1-(3-(4-(4-chloro-5-cyclopropyl-2-methoxybenzoyl)-piperazin-1-yl)azetidin-1-yl)prop-2-en-1-one] | + (+indicates binding activity from 5% to 15%) |
| C=CC(=O)N1CC(N2CCN(C(=O)c3cc(-c4cc(Cl)ccc4Cl)c(Cl)cc3O)CC2)C1 [II-48, 1-(3-(4-(2′,5′,6-trichloro-4-hydroxybiphenyl-carbonyl)piperazin-1-yl)azetidin-1-yl)prop-2-en-1-one] | ++ (++indicates binding activity greater than 15% and up to 25%) |
